In patent publication US12251388B1, “Methods of treating ischemic stroke at risk for cerebral or cerebellar edema” (REMEDY PHARMACEUTICALS, INC., priority 2024, dated 2025):

Test system: large hemispheric infarction (LHI) patients at high risk for cerebral edema
Test: CHARM trial: mRS score at 90 days, shift analysis on 5-category ordinal scale (0/1 and 5/6 collapsed), intravenous glibenclamide versus placebo
Type: in vivo, human
Conditions: for Common Odds Ratio: mITT population (aged ≤70 years), drug vs placebo
Source text: The CHARM trial evaluated the safety and efficacy of intravenous glibenclamide as a treatment for large hemispheric infarction (LHI) patients at high risk for cerebral edema.
Patients meeting the following criteria were included: • A clinical diagnosis of acute ischemic stroke in the middle cerebral artery (MCA) territory. • A large hemispheric infarction defined as; lesion volume of 80 to 300 centimeters cubed (cm^3) on magnetic resonance imaging (MRI) diffusion-weighted imaging (DWI), or computed tomography perfusion (CTP), or an Alberta Stroke Program Early CT Score (ASPECTS) of 1 to 5 with involvement of at least 2 defined cortical regions. • Screening National Institutes of Health Stroke Scale (NIHSS)>=10. • At the time of randomization, and in the Investigator's judgement, it must be feasible for study drug treatment infusion to be initiated no later than 10 hours after time of symptom onset, if known, or the time last known normal. • Participants who wake with stroke may be included if neurological and other exclusion criteria are satisfied. The time of stroke onset is to be taken as the midpoint between sleep onset (or last known to be normal) and time of waking.
Patients meeting the following criteria were excluded: • Participant is likely to have supportive care withdrawn on the first day. • Commitment to decompressive craniectomy (DC) prior to enrollment. • Evidence of concurrent infarction in the contralateral hemisphere sufficiently serious so as to affect functional outcome. Pre-Specified Primary Endpoint
Modified Rankin Scale (mRS) score at 90 days analyzed as a shift analysis using a 5-category ordinal scale with 0/1 and 5/6 collapsed. The primary efficacy analysis was pre-specified to be conducted in participants 18-70 years of age (inclusive) who were randomized and receive study treatment (the modified intent-to-treat [mITT] population].
Five hundred thirty-five subjects were enrolled, with 268 treated with placebo and 267 treated with intravenous glyburide. The mITT population (the primary analysis population), those participants aged≤70 years who received any study drug, consisted of 431 subjects.
An analysis was conducted in the mITT population to examine effects of limits on the NIHSS. […] A common odds ratio of greater than 1 indicates a positive drug effect and in the group having an NIHSS of ≤20, the common odds ratio exceeded 1.7, indicating a robust effect in favor of the drug.

[1] = mRS scores 5 and 6 combined, baseline NIHSS ≥10 and ≤20

In the case of `COc1ccc(Cl)cc1C(=O)NCCc1ccc(S(=O)(=O)NC(=O)NC2CCCCC2)cc1` [intravenous glyburide, glyburide], the “Common Odds Ratio” value (NIHSS cutoff ≤18, mRS at 90 days, n=197) is reported as 2.027, the “Common Odds Ratio” value (NIHSS cutoff ≤19, mRS at 90 days, n=232) is reported as 1.846 and the “Common Odds Ratio” value (NIHSS cutoff ≤21, mRS at 90 days, n=303) is reported as 1.260. The “Common Odds Ratio” value (NIHSS cutoff ≤22, mRS at 90 days, n=328) was 1.144, the “Common Odds Ratio” value (NIHSS cutoff ≤23, mRS at 90 days, n=352) was 1.142 and the “lesion volume at the "no effect" level of the treatment effect (mRS)” value [1] was “approximately 140 cm^3”. For the same compound, the “lesion volume at which a robust treatment effect (mRS) is seen” value [1] was at most 125 cm^3.
